How the values were obtained:
CD8^+ T-lymphocytes [1] = test: Flow cytometry of CD44 and CD62L surface expression; type: cell-based, mouse; conditions: 0.5 mM, with IL-2; antigen specific (OT-I) and polyclonal CD8+ T-lymphocytes
Description: Data are representative of n=4 individual mice.
Data are representative of 3 mice per genotype.
Data are representative of 2 mice per genotype.
Data are representative of n=3 individual mice.
Cells were stained and acquired on a Fortessa (BD Biosciences). […] For staining of nuclear-located marker Eomes, the Transcription Factor Staining Buffer Set (eBioscience) was used, according to the manufacturer's instructions. For staining of intracellular cytokines, OT-I cells were re-stimulated with […] peptide for 4 h with GolgiStop solution (BD). For ^1H-NMR experiments, CD8^+ T-lymphocytes were sorted from total splenocytes by immunostaining with anti-mouse CD8-AF647 (Biolegend) on a MoFlo (Beckman Coulter). Cells were then activated and cultured as described above.

[2] = test system: OT-I CD8^+CD45.1^+ T-lymphocytes; test: In vivo memory recall experiment (adoptive transfer, vaccination); set-up: species or system mouse; conditions: 0.5 mM, 7 days with IL-2 (FIGS. 13, 16, 17)
Protocol: FIGS. 13B and 13C show representative flow cytometry plots of (B) CD8^+CD45.1^+ (C) or Kb/SIINFEKL Pentamer^+CD45.1^+ T-lymphocytes, in the spleens of vaccinated litter mate CD45.2 mice, 37 days after adoptive transfer of SIINFEKL-activated OT-I CD8^+CD45.1^+ T-lymphocytes, expanded with 0.5 mM S-2HG-octyl ester, 0.5 mM R-2HG-octyl ester or vehicle in the presence of IL-2 for 7 days. FIGS. 13D-F show (13D) the number of recovered CD45.1^+CD8^+ T-lymphocytes per spleen and (13E) % CD45.1^+ cells of the total CD8^+ population in each spleen or (13F) number of recovered Kb/SIINFEKL Pentamer^+CD45.1^+ T-lymphocytes per spleen 7 days after vaccination (37 days after the CD8+ T-cells were transferred into the mice). n=6 mice per group and error bars denote the s.e.m.
Total splenocytes from OT-1 CD45.1^+ mice were activated with 1000 nM SIINFEKL peptide in the presence of IL-2 and vehicle, 0.5 mM S-2HG-octyl ester or 0.5 mM R-2HG-octyl ester for 7 days. 1 million CD45^+CD8^+ cells were then injected intravenously into C57/B6 wild type CD45.2^+ host mice. 30 days later, host mice were vaccinated i.p. with SIINFEKL-loaded dendritic cells. 7 days later, spleens were harvested from host mice and the presence of CD45.1^+CD8^+ and Kb/SIINFEKL Pentamer+cells was determined by flow cytometry. Absolute numbers of cells were determined with the use of counting beads (CountBright, Life Technologies). Dendritic cells were prepared from bone marrow extracted from wild type C57/B6 mice. Bone marrow derived cells were cultured in non-TC treated petri dishes in RPMI-1640 medium containing 2 mM glutamine, 10% FBS, 25 mM HEPES, pH 7.2, 1% penicillin-streptomycin, 55 μM […] supplemented 20 ng/ml mGM-CSF (R&D Systems). After 8 days of culture, dendritic cells were activated with 1 μg/ml LPS (Sigma) for 24 h. The maturation of dendritic cells was confirmed by flow cytometry using the following markers: MHC class II-APC, CD11b-AF488, CD11c-AF488 and CD86-PE/Cy7 (Biolegend). Mature dendritic cells were then loaded with 2 μM SIINFEKL peptide at 37° C. for 1 hour. After peptide loading, dendritic cells were detached with 3 mM EDTA in PBS for 5-10 min at 37° C. and washed with PBS. For vaccination, 1 million peptide-loaded dendritic cells were injected i.p. per mouse in 100 μl PBS.

EG7-OVA tumours = test: Adoptive cellular immunotherapy experiments; type: in vivo, mouse; conditions: i.v.
Protocol: Mice were lymphodepleted with sub-lethal irradiation before receivening intravenous injection of OT-I CD8^+ T-lymphocytes. Error bars denote s.e.m. *p<0.05, ns=non-significant.
Error bars denote s.e.m. *p<0.05, ns=non-significant.
For adoptive cell therapy experiments, OT-I CD8^+ T-lymphocytes were activated with 1000 nM SIINFEKL peptide in the presence of IL-2 and vehicle or 300 μM S-2HG-octyl ester. After 48 h CD8^+ T-cells were purified by negative selection and cultured for a further 7 days in the presence of IL-2 and vehicle or 300 μM S-2HG-octyl ester. OT-I cells were transferred intravenously into tumour-bearing C57BL/6J lymphodepleted or lymphoreplete mice with 9-12 day established EG7-OVA tumours.

CD8^+ T-lymphocytes [3] = test: qRT-PCR of differentiation, memory and pluripotency associated genes; type: cell-based, mouse; conditions: 0.5 mM, 1 day or 7 days, with IL2
Protocol: FIGS. 8E, 8F and 8G show expression of II2(8E), Ifng (8F), and Eomes (8G) mRNA in CD8^+ T-lymphocytes activated for 48 h with αCD3+αCD28 antibodies and then expanded for a further 2 days in the presence of IL-2. Cells were then treated for either 24 h or 7 days with or without 0.5 mM S-2HG-octyl ester or R-2HG-octyl ester. n≥4 mice per group.
Activated CD8^+ T-lymphocytes were treated with 0.5 mM of either S-2HG-octyl ester or R-2HG-octyl ester for 1 day or 7 days in the presence of IL2. The induction seen with R-2HG-octyl ester is weaker than with S-2HG-octyl ester. Each dot represents an individual donor mouse, n=4 mice. error bars denote the s.d.
RNA was isolated using the RNeasy kit (Qiagen). 1 μg of RNA was used for cDNA synthesis with the First-Strand Synthesis kit (Invitrogen). All samples were run in technical triplicates using a StepOnePlus system (Applied Biosystems) with SYBR green.

OT-I CD8^+ T-lymphocytes [4] = test: In vivo persistence experiments; set-up: species or system mouse
Protocol: Flow cytomotery plots are gated on live cells.
Total splenocytes from OT-I CD45.1^+ mice were activated with 1000 nM SIINFEKL peptide in the presence of IL-2 and vehicle or 300 μM S-2HG-octyl ester. After 48 h CD8^+ T-cells were purified by negative selection and cultured for 7 days in the presence of IL-2 and vehicle or 300 μM S-2HG-octyl ester. 1 million CD45.1^+CD8^+ cells were then injected intravenously into C57BL/6J wild type CD45.2.2 host mice. 30 days later, host mice were sacrificed to assess the persistence of transferred cells in the spleen. Absolute numbers of cells were determined with the use of counting beads (CountBright, Life Technologies).

OT-I CD8^+ T-lymphocytes [5] = test: Homeostatic proliferation after co-transfer into sub-lethally irradiated hosts; type: in vivo, mouse
Protocol: CD45.1.1 or CD45.1.2 OT-I CD8^+ T-lymphocytes were activated with 1000 nM SIINFEKL peptide and cultured with or without 300 μM S-2HG-octyl ester for 9 days. Cells from each group were mixed 1:1 and labelled with CFSE prior to transfer into sub-lethally irradiated CD45.2.2 mice. 7 days later, mice were sacrificed and the presence of CD451.1 and CD45.1.2 CD8^+ T-lymphocytes was enumerated in spleen by flow cytometry. Representative flow cytometry plots are shown for each pool before and after adoptive transfer. Flow cytometry plots show viable CD8^+ cells.
Total splenocytes from OT-I CD45.1/CD45.1 and OT-I CD45.1/CD45.2 mice were activated with 1000 nM SIINFEKL peptide in the presence of IL-2 and vehicle or 300 μM S-2HG-octyl ester. After 48 h CD8^+ T-cells were purified by negative selection and cultured for a further 7 days in the presence of IL-2 and vehicle or 300 μM S-2HG-octyl ester. Vehicle and S-2HG-treated cells were then mixed 1:1 and labelled with CFSE, followed by intravenous injection into sub-lethally irradiated CD45.2/CD45.2 hosts. 7 days later, spleens were harvested and analysed by flow cytometry. Absolute numbers of cells were determined with the use of counting beads (CountBright, Life Technologies)

CD8^+ T-lymphocytes [6] = test: Flow cytometric characterisation of phenotypic markers; type: cell-based, mouse; conditions: 7 days
Description: Gated on live CD8^+ cells. Each dot represents an individual mouse.
Associated statistics are shown and each pair of dots represents an individual mouse. Gated on live, CD8^+GFP^+ cells.
Cells were stained and acquired on a Fortessa (BD Biosciences). The following fluorophores and fluorophore-conjugated antibodies were used: anti-CD62L (Biolegend, MEL-14), anti-CD44 (Biolegend, IM7), anti-CD8a (Biolegend, 53-6.7), anti-CD45.1 (Biolegend, A20), anti-CD45.2 (Biolegend, 104), anti-CD127 (Biolegend, A7R34), anti-KLRG1 (Biolegend, 2F1/KLRG1), anti-CD19 (Biolegend, 6D5), anti-Bcl-2 (Biolegend, BCL/10C4), Eomes (eBioscience, Danlimag), PD-1 (Biolegend, 29F.1A12), […], H-2Kb/SIINFEKL Pentamer-PE (Proimmune, F093-2A), CFSE (Life Technologies), LIVE/DEAD Violet (Life Technologies), PI-AnnexinV (Biolegend, 640928), anti-Bcl-xl-PE (Cell Signalling Technologies, 54H6). For staining of nuclear-located marker Eomes, the Transcription Factor Staining Buffer Set (eBioscience) was used, according to the manufacturer's instructions. For staining of intracellular cytokines, OT-I cells were re-stimulated with SIINFEKL peptide for 4 h with GolgiStop solution (BD). For ^1H-NMR experiments, CD8^+ T-lymphocytes were sorted from total splenocytes by immunostaining with anti-mouse CD8-AF647 (Biolegend) on a MoFlo (Beckman Coulter). Cells were then activated and cultured as described above. For staining of human T cells, CD8^+ T cells were incubated at 37 C for 30 minutes in the presence of anti-CCR7 antibody (eBioscience 12-1979-41), followed by staining with anti-CD45RO antibody (Biolegend, UCHL1).

OT-I CD8^+ T-lymphocytes [7] = test: Recall experiments with co-transferred cells; type: in vivo, mouse; conditions: cells pre-treated with 300 μM S-2HG-octyl ester; spleen, lymphnodes, liver, day 37 post transfer
Protocol: CD45.1.1 or CD45.1.2 OT-I CD8^+ T-lymphocytes were activated with 1000 nM SIINFEKL peptide and cultured with or without 300 μM S-2HG-octyl ester for 9 days. Cells from each group were mixed 1:1 prior to transfer into CD45.2.2 mice. 30 days later, these recipient mice were vaccinated with SIINFEKL-loaded dendritic cells to induce recall and the presence of CD451.1 and CD45.1.2 CD8^+ T-lymphocytes was enumerated in spleen, lymphnodes and liver by flow cytometry 7 days later.

[8] = 500 μM S-2HG-octyl ester, HIF-1α-independent

Structure (SMILES) | formation of a CD62L^high CD44^high population (CD8^+ T-lymphocytes [1]) | formation of memory cells after in vitro treatment of CD8+ T-cells [2] | formation of memory cells after in vitro treatment of CD8+ T-cells ([2]; listed as alpha ketoglutarate) | control of tumour growth in lymphodepleted tumour-bearing mice (EG7-OVA tumours; 0.7×10^6 OT-I cells cultured with S-2HG-octyl ester, 12 day tumours) | control of tumour growth in lymphoreplete tumour-bearing mice (EG7-OVA tumours; 1.0×10^6 OT-I cells cultured with S-2HG-octyl ester, 9 day tumours) | expression of pluripotency associated genes (Oct3/4, Sox2, Nanog, Klf4) (CD8^+ T-lymphocytes [3]) | persistence of adoptively transferred cells (OT-I CD8^+ T-lymphocytes [4]; cells pre-treated with 300 μM S-2HG-octyl ester, spleen, 30 days after transfer) | Bcl-2 level of recovered cells relative to naïve cells (OT-I CD8^+ T-lymphocytes [4]; day 30 after transfer) | CD44 level of recovered cells relative to naïve cells (OT-I CD8^+ T-lymphocytes [4]; day 30 after transfer) | CD127 level of recovered cells relative to naïve cells (OT-I CD8^+ T-lymphocytes [4]; day 30 after transfer) | homeostatic proliferation of transferred cells (OT-I CD8^+ T-lymphocytes [5]; cells pre-treated with 300 μM S-2HG-octyl ester 9 days, 7 days after transfer, spleen) | transferred cells dividing >5 times in vivo (OT-I CD8^+ T-lymphocytes [5]; cells pre-treated with 300 μM S-2HG-octyl ester, CFSE, day 7) | proportion of KLRG1^High cells (CD8^+ T-lymphocytes [6]; 300 μM S-2HG-octyl ester, 21% oxygen, empty or L2hgdh-FLAG vector) | PD-1 expression (CD8^+ T-lymphocytes [6]; 500 μM S-2HG-octyl ester) | 41BB expression (CD8^+ T-lymphocytes [6]; [8]) | CD44 expression (CD8^+ T-lymphocytes [6]; [8]) | CD127 expression (CD8^+ T-lymphocytes [6]; [8]) | Eomes expression (flow cytometry) (CD8^+ T-lymphocytes [6]; [8]) | recall response to vaccination with SIINFEKL-loaded dendritic cells (OT-I CD8^+ T-lymphocytes [7])
CCCCCCCCOC(=O)C(=O)CCC(=O)O [α-ketoglutarate octyl ester, reference compound] | not observed | does not induce the formation | does not provide good activity |  |  |  |  |  |  |  |  |  |  |  |  |  |  |  | 
COC(=O)CCC(=O)OC [dimethylsuccinate] | induce the formation | induces the formation |  |  |  |  |  |  |  |  |  |  |  |  |  |  |  |  | 
O=C(O)CC[C@H](O)C(=O)O [S-2HG, S-2-hydroxyglutarate] |  |  |  | more proficient at controlling tumour growth | more proficient at controlling tumour growth | induces the expression | dramatically enhanced persistence | elevated | elevated | elevated | greater homeostatic proliferation | more cells dividing >5 times | decreased | less | more | more | more | more | superior recall response

Source: patent US20190316085A1, “Methods Of T-Lymphocyte Expansion” (Cambridge Enterprise Limited, priority 2015, published 2019)
